Patent US20040057961A1, “Human t cell response to mhc-binding motif clusters” (priority 2000, published 2004)

Assays:
[1] = test system: peripheral blood mononuclear cells from Mtb-immune (PPD skin-test positive) subjects; assay: Lymphoproliferation assay ([3H]thymidine, stimulation index) with PBMC of Mtb-immune subjects; assay type: cell-based, human; details: for number of Mtb-immune responders (proliferative response SI≧2.0): all Mtb-immune subjects; for Phil % responders (n = 38) / Phil # responders (n = 38): Philippines cohort; for Phil % responders (n = 38) / Phil # responders (n = 38) / Prov % responders (n = 22) / Prov # responders (n = 22): response positive if SI≧2.0; for Phil # responders (n = 38) / Prov # responders (n = 22): peptide 1 and 10 μg/ml; for Prov % responders (n = 22) / Prov # responders (n = 22): Providence cohort
[2] = test system: peripheral blood mononuclear cells from Mtb-naive (PPD skin-test negative) subjects; assay: Lymphoproliferation assay ([3H]thymidine, stimulation index) with PBMC of Mtb-naive subjects; assay type: cell-based, human; details: n=19

Substance | number of Mtb-immune responders (proliferative response SI≧2.0) ([1]; n=40) | Phil % responders (n = 38) [1] | Phil # responders (n = 38) [1] | Prov % responders (n = 22) [1] | Prov # responders (n = 22) [1] | also measured
AELPGVDPDKDVD (listed as Mycobacterium tuberculosis) [16-3, 16 kDa Mtb protein, amino acids 54-66] | one | – | – | – | – | –
CEVWSNVSETISGPRLYGEM (listed as Mycobacterium tuberculosis) [14-5, 14 kDa Mtb protein, amino acids 74-93] | – | 5% | 2 | 5% | 2 | –
GSFGSAPSNGWLKLGLVEFG (listed as Mycobacterium tuberculosis) [14-2, 14 kDa Mtb protein, amino acids 19-38] | six | 15% | 6 | 8% | 3 | –
SVVMPVGGQSSFYSDW (listed as Mycobacterium tuberculosis) [32-3, 32 kDa Mtb protein, amino acids 67-82] | only a few | – | – | – | – | –
RSLFPEFSELFAAFPSFAGL (listed as Mycobacterium tuberculosis) [16-1, 16 kDa Mtb protein, amino acids 11-30] | six | 10% | 4 | 5% | 2 | –
FSELFAAFPSFAGLRPTFDT [16-2, 16 kDa Mtb protein, amino acids 17-36] | – | 10% | 4 | 3% | 1 | –
KFLEGFVRTSNIKFQD (listed as Mycobacterium tuberculosis) [32-9, 32 kDa Mtb protein, amino acids 227-242] | six | – | – | – | – | –
phytohemagglutinin [reference compound] | – | – | – | – | – | response to mitogen in words ([1]; 1 μg/ml, the 41 subjects who were tested (both groups)): robust response
FAYGSFVRTVSLPVGA (listed as Mycobacterium tuberculosis) [16-5, 16 kDa Mtb protein, amino acids 92-107] | six | – | – | – | – | % responders among Mtb-immune subjects ([1]; n=40): 28%; Mtb-naive controls that responded [2]: none
QNVTGSVVCTTAAGNVN [19-2] | six | – | – | – | – | –
LAIYHPQQFVYAGAMSGLLD (listed as Mycobacterium tuberculosis) [32-7, 32 kDa Mtb protein, amino acids 135-154] | six | – | – | – | – | –
MLGNAPSVVPNTTLGMHC (listed as Mycobacterium tuberculosis) [14-1, 14 kDa Mtb protein, amino acids 1-18] | – | 5% | 2 | 5% | 2 | –
LAIGGAATGIAAVLTDGNPP [19-3] | six | – | – | – | – | –
VSETISGPRLYGEMTMQGTR (listed as Mycobacterium tuberculosis) [14-6, 14 kDa Mtb protein, amino acids 80-99] | – | 3% | 1 | 3% | 1 | –
RHVKPTGSAVVGLSMAASSA [32-5, 32 kDa Mtb protein, amino acids 113-132] | six | – | – | – | – | –
PLLNVGKLIANNTRVWVY (listed as Mycobacterium tuberculosis) [32-8, 32 kDa Mtb protein, amino acids 193-210] | – | – | – | – | – | % responders among Mtb-immune subjects ([1]; n=40): 25%; Mtb-naive controls that responded [2]: none
VGLSMAASSALTLAIYHPQQ (listed as Mycobacterium tuberculosis) [32-6, 32 kDa Mtb protein, stop at amino acid 142] | six | – | – | – | – | –
LKLGLVEFGGVAKLNAEVMS (listed as Mycobacterium tuberculosis) [14-3, 14 kDa Mtb protein, amino acids 30-49] | six | 8% | 3 | 10% | 4 | –
QAVMLGTGTPNRA (listed as Mycobacterium tuberculosis) [14-4, 14 kDa Mtb protein, amino acids 56-68] | – | 8% | 3 | 3% | 1 | –
TT: tetanus toxoid, control antigen (Connaught) [reference compound] | – | – | – | – | – | Mtb-immune subjects showing a proliferative response in vitro ([1]; control antigen 5 μg/ml, n=40): All but six; stimulation index (SI) range ([1]; control antigen 5 μg/ml, range over responding subjects): 2-182; Mtb-naive controls not showing a proliferative response ([2]; control antigen 5 μg/ml): one
